We go through eight compounds from publication PMC4403045 (EMBO Molecular Medicine, 2015).

The test system of one data set is NCI60 cell lines. Briefly: GI50 in the NCI60 cell line panel. The format is cell-based. Particulars: Homo sapiens. The method, then:
(§1) Cells were seeded in 96-well plates, treated with different concentrations of drugs for 48 h, and cell viability was analyzed by MTT assays according to manufacturer's protocols. Experiments to determine GI50 with the NCI60 panel cell lines (http://dtp.nci.nih.gov/branches/btb/ivclsp.html) were performed at NCI (Alley et al, [1988]; Shoemaker, [2006]).

The next data set has as its system MEFs. Briefly: GI50 in MEFs. The class given is cell-based. The method, then: as §1
The subject of a further data set is HDAC1-6. Briefly: cell-free HDAC activity assays, HDAC1-6 overall. The class given is biochemical. Particulars: Fig2A and 2B.
For data set [1], the system named is HDAC activities in H1650 cells. Briefly: histone acetylation markers by Western blot in H1650 cells. The format is cell-based. To be noted: 12 h, 20 μM CY, 20 μM CpdA, 200 μM CpdB, 200 μM Bend. For orientation: A western blot detects proteins with antibodies after separation by electrophoresis.
Data set [2] concerns CBP, TIP60, MORF, and MSL1 expression in H1650 cells. The format is cell-based.
The next data set deals with BCR-ABL ALL cells. Briefly: survival of mice transplanted with BCR-ABL ALL cells. The class given is in vivo. Particulars: for survival extension: treatment at MTD, mice transplanted with BCR-ABL ALL cells. The method, then:
Experimental procedures were approved by the Animal Care and Use Committee of Shanghai Institute of Biochemistry and Cell Biology, Chinese Academy of Sciences. In all, 200 wild-type C57BL/6 mice (6 weeks old, female) were used for determining maximally tolerated dose of CY, and testing CY and other drugs' efficacy in the BCR-ABL ALL model. […] At 7 days postinjection, mice were treated with indicated drugs at their MTDs. Mice were monitored daily for survival after drug treatment. Survival curve and statistical analysis were done using the Prism software. For xenograft H460 model, in all, nude mice (8 weeks old, female) were used to test CY and bendamustine's in vivo efficacy. The numbers of mice used in each experimental group are labeled on Fig4.

A further data set concerns human CLL cells. The class given is cell-based.
For data set [3] the following is noted: mice; ref according to the literature; cited from earlier work.
In a further data set the test system is human cancer cell lines. Briefly: cancer cell killing / MTT viability (LD50). The format is cell-based.
The next data set relates to γ-H2AX in H1650 cells. Briefly: γ-H2AX Western blot (DNA damage) in H1650 cells. The format is cell-based. To be noted: 12 h.
For another data set, the target named is HDAC1 (Homo sapiens, UniProt Q13547). Briefly: in vitro HDAC1 inhibition assay. The class given is biochemical.
Chain of HDAC1 (Q13547 whole entry): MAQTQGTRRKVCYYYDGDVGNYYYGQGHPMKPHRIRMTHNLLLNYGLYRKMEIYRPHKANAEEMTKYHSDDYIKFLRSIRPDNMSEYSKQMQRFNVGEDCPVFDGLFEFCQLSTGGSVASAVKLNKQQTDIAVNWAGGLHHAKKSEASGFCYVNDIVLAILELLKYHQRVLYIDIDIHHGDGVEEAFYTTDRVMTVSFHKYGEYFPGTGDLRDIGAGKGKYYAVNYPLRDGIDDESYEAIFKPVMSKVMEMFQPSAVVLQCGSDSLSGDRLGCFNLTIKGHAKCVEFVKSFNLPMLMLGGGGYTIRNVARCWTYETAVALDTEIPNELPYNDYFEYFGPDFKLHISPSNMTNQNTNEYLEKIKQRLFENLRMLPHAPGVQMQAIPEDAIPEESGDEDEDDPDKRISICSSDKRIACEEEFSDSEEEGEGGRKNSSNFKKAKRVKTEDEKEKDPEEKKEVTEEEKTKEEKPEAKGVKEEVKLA
In another data set the target is HDAC2 (Homo sapiens, UniProt Q92769). Briefly: in vitro HDAC inhibition assay, HDAC2. The class given is biochemical.
Chain of HDAC2 (Q92769 whole entry): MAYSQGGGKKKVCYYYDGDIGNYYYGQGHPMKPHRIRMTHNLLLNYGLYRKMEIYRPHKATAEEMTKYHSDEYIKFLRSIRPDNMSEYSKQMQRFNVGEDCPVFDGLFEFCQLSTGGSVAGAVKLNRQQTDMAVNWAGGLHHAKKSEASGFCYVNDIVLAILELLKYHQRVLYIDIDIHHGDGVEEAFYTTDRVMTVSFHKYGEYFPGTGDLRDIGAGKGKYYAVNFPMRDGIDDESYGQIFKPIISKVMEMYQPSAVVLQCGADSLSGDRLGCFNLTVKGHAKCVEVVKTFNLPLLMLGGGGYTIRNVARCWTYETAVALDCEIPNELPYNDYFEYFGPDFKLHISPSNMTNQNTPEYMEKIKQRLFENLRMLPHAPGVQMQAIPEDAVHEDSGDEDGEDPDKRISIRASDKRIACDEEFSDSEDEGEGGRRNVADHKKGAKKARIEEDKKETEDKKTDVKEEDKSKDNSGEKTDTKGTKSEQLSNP
The target in a further data set is HDAC3 (Homo sapiens, UniProt O15379). Briefly: in vitro HDAC inhibition assay, HDAC3. The format is biochemical.
Chain of HDAC3 (O15379 whole entry): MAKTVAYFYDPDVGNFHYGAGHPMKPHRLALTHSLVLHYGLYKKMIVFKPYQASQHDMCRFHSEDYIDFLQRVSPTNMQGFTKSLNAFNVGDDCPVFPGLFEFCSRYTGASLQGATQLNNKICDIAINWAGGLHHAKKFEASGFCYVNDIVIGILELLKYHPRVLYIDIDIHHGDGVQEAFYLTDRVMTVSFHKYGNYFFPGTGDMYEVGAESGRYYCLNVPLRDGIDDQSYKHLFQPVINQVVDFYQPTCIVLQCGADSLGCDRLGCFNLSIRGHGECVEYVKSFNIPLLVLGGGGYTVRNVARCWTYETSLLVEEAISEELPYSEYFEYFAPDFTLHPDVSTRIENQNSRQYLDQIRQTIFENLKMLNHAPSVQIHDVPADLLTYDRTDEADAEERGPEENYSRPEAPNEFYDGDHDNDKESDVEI
Chain of HDAC3 (Q9Y618 395-489 partner limits assumed): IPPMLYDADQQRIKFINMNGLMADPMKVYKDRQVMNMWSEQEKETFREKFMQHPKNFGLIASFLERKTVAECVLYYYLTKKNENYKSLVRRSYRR
For another data set, the target named is HDAC4 (Homo sapiens, UniProt P56524). Briefly: in vitro HDAC inhibition assay, HDAC4. The class given is biochemical.
Chain of HDAC4 (P56524 whole entry): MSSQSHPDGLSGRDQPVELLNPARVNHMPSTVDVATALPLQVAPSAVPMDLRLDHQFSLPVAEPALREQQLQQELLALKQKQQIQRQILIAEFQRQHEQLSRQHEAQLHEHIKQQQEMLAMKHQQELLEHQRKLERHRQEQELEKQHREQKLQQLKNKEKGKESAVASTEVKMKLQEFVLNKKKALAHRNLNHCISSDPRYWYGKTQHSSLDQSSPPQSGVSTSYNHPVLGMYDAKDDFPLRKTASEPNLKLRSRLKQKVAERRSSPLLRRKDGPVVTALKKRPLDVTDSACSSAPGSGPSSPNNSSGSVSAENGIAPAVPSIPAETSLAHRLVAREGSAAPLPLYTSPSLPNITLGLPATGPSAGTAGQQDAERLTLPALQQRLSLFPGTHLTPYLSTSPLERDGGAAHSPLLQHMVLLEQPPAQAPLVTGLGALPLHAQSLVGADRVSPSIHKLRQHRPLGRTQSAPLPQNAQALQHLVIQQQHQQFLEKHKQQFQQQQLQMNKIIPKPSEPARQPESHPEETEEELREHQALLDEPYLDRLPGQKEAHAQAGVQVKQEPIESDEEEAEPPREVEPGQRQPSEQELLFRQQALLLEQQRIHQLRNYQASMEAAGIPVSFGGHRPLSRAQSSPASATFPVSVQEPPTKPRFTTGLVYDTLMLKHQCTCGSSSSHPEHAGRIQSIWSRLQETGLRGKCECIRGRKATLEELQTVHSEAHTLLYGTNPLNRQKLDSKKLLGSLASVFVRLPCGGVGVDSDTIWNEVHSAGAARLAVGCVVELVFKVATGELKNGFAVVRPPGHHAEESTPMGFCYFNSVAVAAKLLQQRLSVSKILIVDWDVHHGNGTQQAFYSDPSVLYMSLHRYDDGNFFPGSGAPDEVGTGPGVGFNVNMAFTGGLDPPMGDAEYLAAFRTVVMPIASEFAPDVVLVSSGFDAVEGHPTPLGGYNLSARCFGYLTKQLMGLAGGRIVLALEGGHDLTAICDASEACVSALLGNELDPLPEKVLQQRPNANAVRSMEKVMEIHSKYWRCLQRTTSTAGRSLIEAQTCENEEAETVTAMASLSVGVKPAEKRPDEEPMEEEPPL
The target of another data set is T1, HDAC6 (Homo sapiens, UniProt Q9UBN7).
T1 sequence (Q9UBN7 1-1215): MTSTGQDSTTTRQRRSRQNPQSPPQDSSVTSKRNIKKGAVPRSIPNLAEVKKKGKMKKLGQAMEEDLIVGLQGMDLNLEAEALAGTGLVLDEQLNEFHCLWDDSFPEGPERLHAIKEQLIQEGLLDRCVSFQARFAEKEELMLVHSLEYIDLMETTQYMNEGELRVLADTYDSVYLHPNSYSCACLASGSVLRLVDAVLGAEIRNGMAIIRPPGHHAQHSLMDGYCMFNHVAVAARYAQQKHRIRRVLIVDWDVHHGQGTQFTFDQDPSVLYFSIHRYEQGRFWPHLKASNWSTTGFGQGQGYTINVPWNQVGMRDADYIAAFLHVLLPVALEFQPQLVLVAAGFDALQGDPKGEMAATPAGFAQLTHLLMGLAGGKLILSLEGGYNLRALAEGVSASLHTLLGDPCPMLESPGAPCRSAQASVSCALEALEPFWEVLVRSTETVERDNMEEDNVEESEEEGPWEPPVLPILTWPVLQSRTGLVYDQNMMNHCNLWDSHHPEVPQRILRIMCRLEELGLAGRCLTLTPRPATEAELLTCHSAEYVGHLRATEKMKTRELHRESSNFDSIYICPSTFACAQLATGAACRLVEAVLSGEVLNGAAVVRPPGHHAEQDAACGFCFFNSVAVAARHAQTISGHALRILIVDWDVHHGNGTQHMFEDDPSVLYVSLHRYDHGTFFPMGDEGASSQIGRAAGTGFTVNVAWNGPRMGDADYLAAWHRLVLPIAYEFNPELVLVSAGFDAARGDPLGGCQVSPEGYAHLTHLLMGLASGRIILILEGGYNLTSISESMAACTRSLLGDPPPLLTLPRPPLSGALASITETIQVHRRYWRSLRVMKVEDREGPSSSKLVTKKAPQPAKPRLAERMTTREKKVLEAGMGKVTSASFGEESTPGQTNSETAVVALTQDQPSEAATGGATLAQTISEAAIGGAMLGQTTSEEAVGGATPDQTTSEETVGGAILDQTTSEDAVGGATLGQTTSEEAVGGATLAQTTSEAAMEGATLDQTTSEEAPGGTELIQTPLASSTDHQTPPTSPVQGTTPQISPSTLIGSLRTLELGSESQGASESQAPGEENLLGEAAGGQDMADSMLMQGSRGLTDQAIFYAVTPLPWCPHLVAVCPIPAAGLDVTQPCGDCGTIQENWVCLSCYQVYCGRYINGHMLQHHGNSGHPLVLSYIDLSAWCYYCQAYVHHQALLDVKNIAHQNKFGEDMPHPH
Briefly: in vitro HDAC inhibition assay, HDAC6. The format is biochemical.

Data set [4] is described as follows: maximally tolerated dose in mice. To be noted: female, C57BL/6, mouse, in vivo. Here is the method:
(§2) Experimental procedures were approved by the Animal Care and Use Committee of Shanghai Institute of Biochemistry and Cell Biology, Chinese Academy of Sciences. In all, 200 wild-type C57BL/6 mice (6 weeks old, female) were used for determining maximally tolerated dose of CY, and testing CY and other drugs' efficacy in the BCR-ABL ALL model. BCR-ABL cells have been previously described (Williams et al, [2006]). For in vivo experiments, 1 million cells were injected into mice via tail vein (Williams et al, [2006]). At 7 days postinjection, mice were treated with indicated drugs at their MTDs. Mice were monitored daily for survival after drug treatment. Survival curve and statistical analysis were done using the Prism software. For xenograft H460 model, in all, nude mice (8 weeks old, female) were used to test CY and bendamustine's in vivo efficacy. The numbers of mice used in each experimental group are labeled on Fig4.

Data set [5] concerns BCR-ABL Arf−/− murine ALL cells. Briefly: activity against BCR-ABL ALL cells in vitro. The format is cell-based. Here is the method:
Cell lines were cultured using standard protocols provided by ATCC. Myc Arf^−/− cells were cultured as described (Jiang et al, [2009]). BCR-ABL mouse ALL cells were a kind gift from Dr. Richard Williams. CY190602 and its derivatives compound A and B were synthesized by Dr. Wang's Laboratory (U. New Mexico). Other chemicals were purchased from Selleck, EMD, or VWR. Antibodies against γ-H2AX (Millipore), actin (Sigma), H3K18Ac, H3K9Ac, and H3K56Ac (Cell Signaling) were used for Western blotting.
as §1

Data set [6] deals with human NSCLC cell line H460. Briefly: H460 xenograft in nude mice. To be noted: single dose CY 20, 40, 60 mg/kg; bendamustine 40 mg/kg. The format is in vivo. The method, then: as §2
Data set [7] is described as follows: viability of healthy primary B cells. To be noted: human, healthy primary CD19+ B cells from blood donors, 20 μM CY. The class given is cell-based. The text has this: This study was approved by the ethics committee of the University of Cologne (approval 01-163). Blood samples were obtained from patients fulfilling diagnostic criteria for CLL with informed consent according to the Helsinki protocol. Only patients without prior therapy or at least 12 months without prior chemotherapy were included in this study. Fresh blood samples were enriched by applying B-RosetteSep (StemCell Technologies, Vancouver, Canada) to aggregate unwanted cells with erythrocytes and Ficoll-Hypaque (Seromed, Berlin, Germany) density gradient purification resulting in purity > 98% of CD19^+/CD5^+ CLL cells. CLL cells were characterized for CD19, CD5, CD23, FMC7, CD38, ZAP-70, slgM, slgG, CD79a, and CD79b expression on a FACSCanto flow cytometer (BD PharMingen, Heidelberg, Germany). Controls were isolated from healthy blood donors using anti-CD19 MACS beads (Miltenyi, Bergisch Gladbach, Germany) resulting in at least 95% CD19^+ B cells.
Apoptosis was determined by flow cytometry using Annexin V-FITC/7AAD staining (BD PharMingen) after 72 h. […] The fraction of viable cells was determined by counting annexin V/7-AAD double-negative cells for each individual dosage. Median values were subsequently applied for regression analysis and calculation of the half-maximal dosage effect (IC50). […] IC50 values were determined by fitting data to the Hill equation y = y0 + (axb)/(cb+xb).

A further data set concerns human AML cells. Briefly: patient derived xenograft mouse model of human AML. Particulars: done by other collaborators; review file.
Where [8] appears, read: median over NCI60 cell lines, read-out: median growth inhibitor concentration (GI50).
Setting [9] is: H1650 cells, 6 h, bendamustine 350 μM, CY 15 μM, SAHA 10 μM.

Read-outs that look alike come from different tables or passages of the source.

With `Cn1c(CCCC(=O)O)nc2cc(N(CCCl)CCCl)ccc21` [bendamustine], the GI50 with NCI60 cell lines (setting [8]) was 77000 nM; in the data set on NCI60 cell lines (read-out: GI50 for most cancer cell lines of the NCI 60 test) it was more than 100000 nM; with MEFs (MEFs, authors' response in review file), approximately 390000 nM. Also, the “HDAC inhibition” value in the data set on HDAC1-6 is reported as “inability to inhibit HDAC”. The “inhibition of HDAC activities in cancer cells (histone acetylation markers)” value (from here on “inhibition of HDAC activities”) in data set [1] is on record as “not”. Further, the “expression of Tip60, CBP, MORF and MSL1” value in data set [2] (setting [9]) was “not”. For the same compound, the survival extension with BCR-ABL ALL cells was approximately 5 days. Moreover, in the data set on human CLL cells (100 μM, 72 h), the “CLL cells killed at 100 μM” value was “about 80%”. The MTD in data set [3] was 40 mg/kg.
Turning to `Cn1c(CCCCCCC(=O)NO)nc2cc(N(CCO)CCO)ccc21` [compound A], the “synergy with bendamustine in killing cancer cells” value in the data set on human cancer cell lines (nontoxic dose of Cpd A plus bendamustine) is “significantly synergized with bendamustine”. The “killing of cancer cells” value with human cancer cell lines (up to 200 μM, 48 h) is “very ineffective in killing cancer cells”. Moreover, in data set [1], the “inhibition of HDAC activities” value was “inhibited HDAC activities”. In addition, in the data set on γ-H2AX in H1650 cells (100 μM Bend plus 50 μM Cpd A), the “level of γ-H2AX in bendamustine-treated cells” value was “significantly increased”. The “DNA damage (γ-H2AX) by the compound alone” value with γ-H2AX in H1650 cells (H1650 cells) is given as “did not cause DNA damage”.
For the compound `CC(C)n1nc(-c2cc3cc(O)ccc3[nH]2)c2c(N)ncnc21` [PP242], the “survival extension, daily treatment” value in the data set on BCR-ABL ALL cells (daily dose) is on record as 8 days.
In the case of `Nc1nc(F)nc2c1ncn2[C@@H]1O[C@H](CO)[C@@H](O)[C@@H]1O` [fludarabine], the “CLL cells killed at 100 μM” value in the data set with human CLL cells is given as “about 80%”.
Take `Cn1c(CCCCCCC(=O)NO)nc2cc(N(CCCl)CCCl)ccc21` [CY190602]: the GI50 in the data set with NCI60 cell lines (average over NCI60 cell lines, read-out: average GI50) came to 3200 nM; with NCI60 cell lines (setting [8]), 2200 nM; in the data set on MEFs, 57000 nM. Moreover, the IC50 (commonly the point on the concentration scale where inhibition reaches its midpoint) at HDAC1 (HDAC1 Assay (plot legend value), Fig 2A upper panel) came out at 9 nM; against HDAC1 (IC50 of CY, HDAC1, Fig 2A lower panel) it was 17 nM; at HDAC2, 10 nM; at HDAC3, 25 nM; at HDAC4 it was 6.4 nM; at HDAC6, 72 nM. The “inhibition of HDAC activities” value in data set [1] is “inhibited HDAC activities”. The “expression of Tip60, CBP, MORF and MSL1” value in data set [2] (setting [9]) is listed as “greatly suppressed”. This compound gave an MTD in data set [4] of 60 mg/kg. Also, the “activity in cultured BCR-ABL ALL cells compared with bendamustine” value in data set [5] is “more active than bendamustine”. Also, the “survival extension compared with cyclophosphamide, doxorubicin, cytarabine, and vincristine” value in the data set with BCR-ABL ALL cells (drugs at MTD) is recorded as “superior to these drugs”. This compound also returned a survival extension with BCR-ABL ALL cells of 14 days. In addition, the “anticancer activity in H460 xenograft compared with bendamustine” value in [6] is on record as “superior to bendamustine”. In the data set with human CLL cells (5 μM, 72 h), the “CLL cells killed at 5 μM” value is “nearly all”. Besides, in [7], the viability (usually the share of living cells, or the viability signal relative to a control) at 72 h, 20 μM was approximately 40%. For the same compound, the “effect on AML cells” value in the data set with human AML cells was “nearly eliminated AML cells”. For the same compound, in the data set with human AML cells, the “effect on mouse CD45+ (hematopoeitc lineage) cells” value is on record as “minimal effect”.
`Nc1ccn([C@@H]2O[C@H](CO)[C@@H](O)[C@@H]2O)c(=O)n1` [Cytarabine, reference compound]: in the data set on human AML cells, the “effect on AML cells” value is “didn’t kill AML cells as quickly, or as thoroughly as did CY” and the “effect on mouse CD45+ (hematopoeitc lineage) cells” value was “nearly wiped out CD45+ cells”.
Take `Cn1c(CCCCCCC(=O)O)nc2cc(N(CCCl)CCCl)ccc21` [compound B]: the “inhibition of HDAC activities” value was “little HDAC inhibitory activity” in data set [1] and “not” in [1] (listed as CpdB).
For the compound `O=C(CCCCCCC(=O)Nc1ccccc1)NO` [SAHA], the “expression of Tip60, CBP, MORF and MSL1” value in data set [2] was “significant suppression”. Besides, in the data set with BCR-ABL ALL cells, the survival extension entry is reported as “approximately 2 days”.
